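Method: 48-hour compound exposure of cells in 96-well plates, five concentrations, linear interpolation of endpoints. Definition used: TGI = concentration required for complete inhibition of growth.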
What was measured:
Assay in all cases: NCI tumour cell line growth inhibition, 48 h
MOLT-4 leukemia = test system: MOLT-4 leukemia
IGROV1 ovarian = test system: IGROV1 ovarian
786-0 renal = test system: 786-0 renal
SF-539 CNS = test system: SF-539 CNS
KM12 colon = test system: KM12 colon
SNB-19 CNS = test system: SNB-19 CNS
SNB-75 CNS = test system: SNB-75 CNS
SW-620 colon = test system: SW-620 colon
HCC-2998 colon = test system: HCC-2998 colon
COLO 205 colon = test system: COLO 205 colon

## CC(C)(C)C1=CC(=C2C=Cc3ccccc3O2)C=C(C(C)(C)C)C1=O
MOLT-4 leukemia
  TGI: > 21.3 µM
IGROV1 ovarian
  TGI: > 52.8 µM
786-0 renal
  TGI: 9.55 µM
SF-539 CNS
  TGI: 20 µM
KM12 colon
  TGI: 9.7 µM
SNB-19 CNS
  TGI: > 50.7 µM
SNB-75 CNS
  TGI: 40 µM
SW-620 colon
  TGI: 13.9 µM
HCC-2998 colon
  TGI: 2.99 µM
COLO 205 colon
  TGI: 4.71 µM

## CSc1c(CC(=O)Nc2ccc(Cl)cc2)n(Cc2ccccc2)c2ccccc12
MOLT-4 leukemia
  TGI: > 100 µM
IGROV1 ovarian
  TGI: > 100 µM
786-0 renal
  TGI: 30.3 µM
SF-539 CNS
  TGI: 9.6 µM
KM12 colon
  TGI: > 100 µM
SNB-19 CNS
  TGI: > 100 µM
SNB-75 CNS
  TGI: 33.1 µM
SW-620 colon
  TGI: > 100 µM
HCC-2998 colon
  TGI: 88 µM
COLO 205 colon
  TGI: > 100 µM

## Cc1ccc2[nH]c3[nH]c(=S)[nH]c(=O)c3c2c1
MOLT-4 leukemia
  TGI: > 100 µM
IGROV1 ovarian
  TGI: > 100 µM
786-0 renal
  TGI: > 100 µM
SF-539 CNS
  TGI: > 100 µM
KM12 colon
  TGI: > 100 µM
SNB-19 CNS
  TGI: > 100 µM
SNB-75 CNS
  TGI: > 100 µM
SW-620 colon
  TGI: > 100 µM
HCC-2998 colon
  TGI: > 100 µM
COLO 205 colon
  TGI: > 100 µM

## CCN(CC)CCCNc1[nH]ncc2c(C)c3nc4ccc(OC)cc4c3cc12
MOLT-4 leukemia
  TGI: 0.0904 µM
IGROV1 ovarian
  TGI: 2.91 µM
786-0 renal
  TGI: 2.28 µM
SF-539 CNS
  TGI: 1.16 µM
KM12 colon
  TGI: 4.49 µM
SNB-19 CNS
  TGI: 1.21 µM
SNB-75 CNS
  TGI: 2.1 µM
SW-620 colon
  TGI: 1.58 µM
HCC-2998 colon
  TGI: 2.33 µM
COLO 205 colon
  TGI: 2.89 µM

## N#C/C(N)=C(\C#N)N=CNc1ccc(N)cc1
MOLT-4 leukemia
  TGI: > 100 µM
IGROV1 ovarian
  TGI: > 100 µM
786-0 renal
  TGI: > 100 µM
SF-539 CNS
  TGI: > 100 µM
KM12 colon
  TGI: > 100 µM
SNB-19 CNS
  TGI: > 100 µM
SNB-75 CNS
  TGI: > 100 µM
SW-620 colon
  TGI: > 100 µM
HCC-2998 colon
  TGI: > 100 µM
COLO 205 colon
  TGI: > 100 µM

## CNC(=O)OC(COC)CN1CCN(c2ccccc2C)CC1 (stereo not given)
MOLT-4 leukemia
  TGI: > 10 µM
IGROV1 ovarian
  TGI: > 10 µM
786-0 renal
  TGI: > 10 µM
SF-539 CNS
  TGI: > 10 µM
KM12 colon
  TGI: > 10 µM
SNB-19 CNS
  TGI: > 10 µM
SNB-75 CNS
  TGI: > 10 µM
SW-620 colon
  TGI: > 10 µM
HCC-2998 colon
  TGI: > 10 µM
COLO 205 colon
  TGI: > 10 µM

## O=C(O)c1ccc(Nc2nc3cc(C(F)(F)F)ccc3n3cccc23)cc1
MOLT-4 leukemia
  TGI: 67.7 µM
IGROV1 ovarian
  TGI: > 100 µM
786-0 renal
  TGI: 65.5 µM
SF-539 CNS
  TGI: 74.6 µM
KM12 colon
  TGI: > 100 µM
SNB-19 CNS
  TGI: > 100 µM
SNB-75 CNS
  TGI: 81 µM
SW-620 colon
  TGI: > 100 µM
HCC-2998 colon
  TGI: 44.6 µM
COLO 205 colon
  TGI: 37 µM

## COc1cc2ccc1OCc1cccc(n1)COc1ccc(cc1OC)C=NCCNCCNCCN=C2
MOLT-4 leukemia
  TGI: > 100 µM
IGROV1 ovarian
  TGI: > 100 µM
786-0 renal
  TGI: > 100 µM
SF-539 CNS
  TGI: > 100 µM
KM12 colon
  TGI: > 100 µM
SNB-19 CNS
  TGI: > 100 µM
SNB-75 CNS
  TGI: > 100 µM
SW-620 colon
  TGI: > 100 µM
HCC-2998 colon
  TGI: > 100 µM
COLO 205 colon
  TGI: > 100 µM

## O=[N+]([O-])/C(C(Cl)=C(Cl)Cl)=C(\N1CCCCC1)n1nnc2ccccc21
MOLT-4 leukemia
  TGI: 18.3 µM
IGROV1 ovarian
  TGI: 34.1 µM
786-0 renal
  TGI: 33.5 µM
SF-539 CNS
  TGI: 33.6 µM
KM12 colon
  TGI: > 88 µM
SNB-19 CNS
  TGI: 40.3 µM
SNB-75 CNS
  TGI: > 65.5 µM
SW-620 colon
  TGI: 39.1 µM
HCC-2998 colon
  TGI: 26.2 µM
COLO 205 colon
  TGI: 34.4 µM

## CC[P+]1(c2ccccc2)[C@@H](C)CC[C@@H]1C
MOLT-4 leukemia
  TGI: > 100 µM
IGROV1 ovarian
  TGI: > 100 µM
786-0 renal
  TGI: > 100 µM
SF-539 CNS
  TGI: > 100 µM
KM12 colon
  TGI: > 100 µM
SNB-19 CNS
  TGI: > 100 µM
SNB-75 CNS
  TGI: > 100 µM
SW-620 colon
  TGI: > 100 µM
HCC-2998 colon
  TGI: > 100 µM
COLO 205 colon
  TGI: > 100 µM

## NC1Cc2ccccc2OC1=O (stereo not given)
MOLT-4 leukemia
  TGI: > 100 µM
IGROV1 ovarian
  TGI: > 100 µM
786-0 renal
  TGI: > 100 µM
SF-539 CNS
  TGI: > 100 µM
KM12 colon
  TGI: > 100 µM
SNB-19 CNS
  TGI: > 100 µM
SNB-75 CNS
  TGI: > 100 µM
SW-620 colon
  TGI: > 100 µM
HCC-2998 colon
  TGI: > 100 µM
COLO 205 colon
  TGI: > 100 µM

## Cc1ccc(S(=O)(=O)N/N=C2/CC3CCC4CC2CC34)cc1 (stereo not given)
MOLT-4 leukemia
  TGI: > 100 µM
IGROV1 ovarian
  TGI: > 100 µM
786-0 renal
  TGI: > 100 µM
SF-539 CNS
  TGI: > 100 µM
KM12 colon
  TGI: > 100 µM
SNB-19 CNS
  TGI: > 100 µM
SNB-75 CNS
  TGI: > 100 µM
SW-620 colon
  TGI: > 100 µM
HCC-2998 colon
  TGI: > 100 µM
COLO 205 colon
  TGI: > 100 µM

## C=CCOc1ccccc1C1(O)c2ccccc2C2=NCCCN21 (stereo not given)
MOLT-4 leukemia
  TGI: > 100 µM
IGROV1 ovarian
  TGI: 44.7 µM
786-0 renal
  TGI: > 100 µM
SF-539 CNS
  TGI: 39.5 µM
KM12 colon
  TGI: > 100 µM
SNB-19 CNS
  TGI: 79.5 µM
SNB-75 CNS
  TGI: > 100 µM
SW-620 colon
  TGI: > 100 µM
HCC-2998 colon
  TGI: 30.3 µM
COLO 205 colon
  TGI: 78.9 µM

## COc1ccccc1NCc1cccc2c(=O)c3ccc(Cl)cc3oc12
MOLT-4 leukemia
  TGI: > 100 µM
IGROV1 ovarian
  TGI: > 100 µM
786-0 renal
  TGI: > 100 µM
SF-539 CNS
  TGI: > 100 µM
KM12 colon
  TGI: > 100 µM
SNB-19 CNS
  TGI: > 100 µM
SNB-75 CNS
  TGI: > 100 µM
SW-620 colon
  TGI: > 100 µM
HCC-2998 colon
  TGI: > 100 µM
COLO 205 colon
  TGI: > 100 µM

## C[N+]1(CCC[N+]2(C)CC3C4C=CC(CC4)C3C2)CCOCC1 (stereo not given)
MOLT-4 leukemia
  TGI: > 100 µM
IGROV1 ovarian
  TGI: > 100 µM
786-0 renal
  TGI: > 100 µM
SF-539 CNS
  TGI: > 100 µM
KM12 colon
  TGI: > 100 µM
SNB-19 CNS
  TGI: > 100 µM
SNB-75 CNS
  TGI: > 100 µM
SW-620 colon
  TGI: > 100 µM
HCC-2998 colon
  TGI: > 100 µM
COLO 205 colon
  TGI: > 100 µM

## O=C(Nc1sccc1S(=O)(=O)c1ccccc1)c1ccccc1
MOLT-4 leukemia
  TGI: > 100 µM
IGROV1 ovarian
  TGI: > 100 µM
786-0 renal
  TGI: > 100 µM
SF-539 CNS
  TGI: > 100 µM
KM12 colon
  TGI: > 100 µM
SNB-19 CNS
  TGI: > 100 µM
SNB-75 CNS
  TGI: > 100 µM
SW-620 colon
  TGI: > 100 µM
HCC-2998 colon
  TGI: > 100 µM
COLO 205 colon
  TGI: > 100 µM

## COc1cc(NC=C2C(=O)OC(C)(C)OC2=O)c(OC)c(C)c1OC
MOLT-4 leukemia
  TGI: > 100 µM
IGROV1 ovarian
  TGI: > 100 µM
786-0 renal
  TGI: > 100 µM
SF-539 CNS
  TGI: > 100 µM
KM12 colon
  TGI: > 100 µM
SNB-19 CNS
  TGI: > 100 µM
SNB-75 CNS
  TGI: > 100 µM
SW-620 colon
  TGI: > 100 µM
HCC-2998 colon
  TGI: > 100 µM
COLO 205 colon
  TGI: > 100 µM

From PubChem BioAssay (NCI)
